Laboratory results taken from PMC8921064 (Archives of Toxicology, 2022).
Values joined by “and” are separate entries in the source; they are usually repeats but may differ in a detail not shown here. Equal entries are not always repeated.

Tests used:
[1] = test system: Salmonella typhimurium TA98; assay: Reverse mutation assay (Ames test), TA98; settings: positive control, 10 µg/plate NF; mean ± SD of 3 plates
Procedure: Six concentrations of each compound were tested in triplicate in the absence and presence of 5% (v/v) S9-mix prepared from the livers of Aroclor 1254 treated Sprague–Dawley rats. The S9-mix contained 4 mM NADP, 5.8 mM glucose-6-phosphate, 0.1 M sodium phosphate pH 7.4, 8 mM MgCl2, 33 mM KCl and 5% S9 homogenate. Fresh bacterial cultures were prepared overnight to reach 10^9 cells/ml. The following solutions were pre-incubated in a rotating incubator at 70 rpm and 37 °C, and contained either 0.5 ml S9-mix (in case of S9 presence) or 0.5 ml 0.1 M potassium phosphate pH 7.4 (in case of S9 absence), 0.1 ml of a fresh bacterial culture (10^9 cells/ml) of TA98 or TA100, […] Top agar was melted and heated to 45 °C. After preincubation, the substrate solutions were added to 3 ml of the molten top agar and mixed by vortexing and the top agar mixture was poured onto a minimal glucose agar plate. After solidification of the top agar, the plates were incubated at 37 °C for 48 h. The number of revertant colonies per plate was automatically counted with the Instem Sorcerer Colony Counter (Staffordshire, UK). In the absence of S9-mix, 2-nitrofluorene (NF) and methylmethanesulfonate (MMS) were tested as positive controls for incubations with TA98 and TA100, respectively. In the presence of S9-mix, 2-aminoanthracene (2AA) was tested as a positive control in both TA98 and TA100. DMSO was tested as a solvent control in both tester strains.

[2] = test system: rat liver microsomes (RLM); assay: Rat liver microsomal incubation, metabolite formation quantified by UPLC; settings: RLM
Procedure: (§1) The incubation mixtures were prepared and incubated in glass vials to avoid plastic binding of the substrates. The glass vials were capped to prevent substrate loss due to volatility. After preincubation of the incubation mixture at 37 °C for 1 min, the enzymatic reaction was initiated by adding microsomes to the incubation mixture which was subsequently incubated at 37 °C for 20 min. The reaction was terminated by adding 100 µl ice-cold acetonitrile followed by vortexing. After 5 min centrifugation at 5000 rpm (4000 × g), 4 °C, the supernatant was collected for ultraperformance liquid chromatography (UPLC) analysis. […] Therefore, a diisopropylether (DIPE) extraction of the metabolites was performed after the reaction was stopped by the addition of 20 µl 10% HClO4. To this end, the incubation mixture (total volume of 220 µl) was extracted three times with 1 ml DIPE. Each time, the upper organic layer was collected and the DIPE was subsequently evaporated from the combined organic fractions with a gentle stream of nitrogen. The residues were dissolved in 100 µl methanol and analyzed by UPLC.
(§2) The metabolites formed were analyzed and quantified using an Acquity UPLC system equipped with a photodiode array (PDA) detector (Waters, Milford, MA). The metabolites and their parent compound were separated on a reverse phase Acquity UPLC® BEH C18 column ([…], 1.7 µm, Waters, Milford, MA) and detected at wavelengths ranging from 190 to 400 nm. Eluent A was nano-pure water containing 0.1% trifluoroacetic acid (v/v), and eluent B was acetonitrile containing 0.1% trifluoroacetic acid (v/v). The gradient elution started from 90% A and 10% B applied from 0.0 min to 0.5 min, which was changed to 0% A and 100% B from 0.5 to 15.5 min and then kept at 0% A and 100% B from 15.5 min to 18.5 min, changed back to 90% A and 10% B from 18.5 to 18.6 min and then maintained at the starting conditions from 18.6 min until 22 min. The total run time was 22 min using a flow rate of 0.6 ml/min. The temperature of the column was set at 40 °C and that of the autosampler at 10 °C during the UPLC analysis. The injection volume was 3.5 µl. Metabolites were quantified using their peak area at the wavelength specified in Table 1, using calibration curves of available reference compounds. Metabolites were identified by comparing their retention time (RT) and UV spectrum to those of reference chemicals on UPLC. When reference chemicals were not available, metabolite identification by gas chromatography-triple quadrupole mass spectrometry (GC–MS/MS) was performed. The minor metabolites were identified by elution time and mass spectra both on UPLC and GC–MS/MS, and by comparison with available elution and spectral information from the literature.
(§3) The metabolite concentrations in the microsomal incubation mixtures as quantified by UPLC were used to calculate the rate of the enzymatic conversions in pmol/min/mg microsomal protein. The kinetic parameters KM and Vmax were obtained using a nonlinear regression curve fit applying the Michaelis Menten equation in GraphPad Prism 5 (San Diego, USA). To compare the catalytic efficiency of formation of the different metabolites the intrinsic clearance (Clint) was calculated as Vmax divided by KM.

[3] = test system: human liver microsomes (HLM); assay: Human liver microsomal incubation, metabolite formation quantified by UPLC; settings: HLM
Procedure: as §1, §2, §3

[4] = test system: Salmonella typhimurium TA100; assay: Reverse mutation assay (Ames test), TA100; settings: positive control, 650 µg/plate MMS; mean ± SD of 3 plates
Procedure: Six concentrations of each compound were tested in triplicate in the absence and presence of 5% (v/v) S9-mix prepared from the livers of Aroclor 1254 treated Sprague–Dawley rats. The S9-mix contained 4 mM NADP, 5.8 mM glucose-6-phosphate, 0.1 M sodium phosphate pH 7.4, 8 mM MgCl2, 33 mM KCl and 5% S9 homogenate. Fresh bacterial cultures were prepared overnight to reach 10^9 cells/ml. The following solutions were pre-incubated in a rotating incubator at 70 rpm and 37 °C, and contained either 0.5 ml S9-mix (in case of S9 presence) or 0.5 ml 0.1 M potassium phosphate pH 7.4 (in case of S9 absence), 0.1 ml of a fresh bacterial culture (10^9 cells/ml) of TA98 or TA100, and 10–100 µg test compound. Top agar was melted and heated to 45 °C. After preincubation, the substrate solutions were added to 3 ml of the molten top agar and mixed by vortexing and the top agar mixture was poured onto a minimal glucose agar plate. After solidification of the top agar, the plates were incubated at 37 °C for 48 h. The number of revertant colonies per plate was automatically counted with the Instem Sorcerer Colony Counter (Staffordshire, UK). In the absence of S9-mix, 2-nitrofluorene (NF) and methylmethanesulfonate (MMS) were tested as positive controls for incubations with TA98 and TA100, respectively. In the presence of S9-mix, 2-aminoanthracene (2AA) was tested as a positive control in both TA98 and TA100. DMSO was tested as a solvent control in both tester strains.

[5] = substrate 1-N-hexylphenanthrene
[6] = substrate 10-Methyl-9-ethylphenanthrene
[7] = 0 to 600 μM, 20 min, NM = no metabolism

In the case of O=[N+]([O-])c1ccc2c(c1)Cc1ccccc1-2 [NF, 2-nitrofluorene, reference compound], the “His + revertant colonies TA98 without S9-mix” value [1] is reported as 1590±295.
For CCCCCCc1cccc2c1ccc1ccccc12 [1-N-hexylphenanthrene, 1-n-Hexylphenanthrene], the “Vmax, formation of 1-Hydroxyhexyl-phenanthrene RT = 8.45 min” value [2, 5] was 103.4 ± 18.1 pmol/min/mg microsomal protein, the “Vmax, formation of 1-Hydroxyhexyl-phenanthrene RT = 8.58 min” value [2, 5] was 54.8 ± 5.2 pmol/min/mg microsomal protein and the “Vmax, formation of 1-Hydroxyhexyl-phenanthrene RT = 8.82 min” value [2, 5] was 25.6 ± 1.8 pmol/min/mg microsomal protein. The “Vmax, formation of 1-Hydroxyhexyl-phenanthrene RT = 9.13 min” value [2, 5] was 11.7 ± 0.9 pmol/min/mg microsomal protein, the “Vmax, formation of 1-Hydroxyhexyl-phenanthrene RT = 8.45 min” value [3, 5] was 48.3 ± 6.1 pmol/min/mg microsomal protein and the “Vmax, formation of 1-Hydroxyhexyl-phenanthrene RT = 8.82 min” value [3, 5] was 44.2 ± 4.8 pmol/min/mg microsomal protein.
In the case of CCc1c(C)c2ccccc2c2ccccc12 [10-Methyl-9-ethylphenanthrene], the “Vmax, formation of 9-(1-Hydroxyethyl)-10-methylphenanthrene RT = 6.65 min” value [2, 6] is reported as 630.2 ± 81.4 pmol/min/mg microsomal protein, the “Vmax, formation of 9-(2-Hydroxyethyl)-10-methylphenanthrene RT = 6.5 min” value [2, 6] is reported as 21.0 ± 3.1 pmol/min/mg microsomal protein and the “Vmax, formation of 9-Ethyl-10-(1-hydroxymethyl)-phenanthrene RT = 6.90 min” value [2, 6] is reported as 85.8 ± 11.6 pmol/min/mg microsomal protein. For the same compound, the “Vmax, formation of 9-Ethyl-10-methylphenanthrol RT = 7.82 min” value [2, 6] was 65.6 ± 9.8 pmol/min/mg microsomal protein, the “Vmax, formation of 9-Ethyl-10-methylphenanthrol RT = 8.3 min” value [2, 6] was 29.4 ± 7.7 pmol/min/mg microsomal protein and the “Vmax, formation of Dihydro-10-methyl-9-ethylphenanthrene-diol RT = 4.29 min” value [2, 6] was 6.4 ± 2.7 pmol/min/mg microsomal protein. The “Vmax, formation of Dihydro-10-methyl-9-ethylphenanthrene-diol RT = 4.34 min” value [2, 6] was 8.09 ± 1.6 pmol/min/mg microsomal protein, the “Vmax, formation of 9-(1-Hydroxyethyl)-10-methylphenanthrene RT = 6.65 min” value [3, 6] was 187.1 ± 45.2 pmol/min/mg microsomal protein and the “Vmax, formation of 9-(2-Hydroxyethyl)-10-methylphenanthrene RT = 6.5 min” value [3, 6] was 12.9 ± 1.8 pmol/min/mg microsomal protein. The “Vmax, formation of 9-Ethyl-10-(1-hydroxymethyl)-phenanthrene RT = 6.90 min” value [3, 6] was 85.9 ± 17.4 pmol/min/mg microsomal protein, the “Vmax, formation of Dihydro-10-methyl-9-ethylphenanthrene-diol RT = 4.29 min” value [3, 6] was 7.2 ± 1.7 pmol/min/mg microsomal protein and the “Vmax, formation of Dihydro-10-methyl-9-ethylphenanthrene-diol RT = 4.34 min” value [3, 6] was 10.5 ± 2.5 pmol/min/mg microsomal protein.
CCc1ccc2c(ccc3ccccc32)c1 [2-Ethylphenanthrene] was tested, and the “Vmax, formation of 2-(1-Hydroxyethyl)-phenanthrene RT = 6.21 min” value ([2]; substrate 2-Ethylphenanthrene) was 3149.0 ± 266.1 pmol/min/mg microsomal protein, the “Vmax, formation of 2-Ethylphenanthrol RT = 7.57 min” value ([2]; substrate 2-Ethylphenanthrene) was 16.5 ± 3.1 pmol/min/mg microsomal protein and the “Vmax, formation of 2-Ethylphenanthrol RT = 7.74 min” value ([2]; substrate 2-Ethylphenanthrene) was 16.6 ± 2.7 pmol/min/mg microsomal protein. For the same compound, the “Vmax, formation of 2-Ethylphenanthrol RT = 7.89 min” value ([2]; substrate 2-Ethylphenanthrene) was 11.8 ± 2.4 pmol/min/mg microsomal protein, the “Vmax, formation of Dihydro-2-ethylphenanthrene-diol RT = 4.6 min” value ([2]; substrate 2-Ethylphenanthrene) was 33.9 ± 11.8 pmol/min/mg microsomal protein and the “Vmax, formation of Dihydro-2-ethylphenanthrene-diol RT = 5.29 min” value ([2]; substrate 2-Ethylphenanthrene) was 42.9 ± 3.5 pmol/min/mg microsomal protein. The “Vmax, formation of Unknown metabolite RT = 9.38 min” value ([2]; substrate 2-Ethylphenanthrene) was 238.0 ± 23.9 pmol/min/mg microsomal protein, the “Vmax, formation of 2-(1-Hydroxyethyl)-phenanthrene RT = 6.21 min” value ([3]; substrate 2-Ethylphenanthrene) was 468.8 ± 50.3 pmol/min/mg microsomal protein and the “Vmax, formation of Dihydro-2-ethylphenanthrene-diol RT = 5.16 min” value ([3]; substrate 2-Ethylphenanthrene) was 18.4 ± 3.2 pmol/min/mg microsomal protein. For the same compound, the “Vmax, formation of Dihydro-2-ethylphenanthrene-diol RT = 5.29 min” value ([3]; substrate 2-Ethylphenanthrene) was 22.1 ± 3.0 pmol/min/mg microsomal protein and the “Vmax, formation of Unknown metabolite RT = 9.38 min” value ([3]; substrate 2-Ethylphenanthrene) was 37.2 ± 6.5 pmol/min/mg microsomal protein.
In the case of CCc1cc2ccccc2c2ccccc12 [9-Ethylphenanthrene], the “Vmax, formation of 9-(1-Hydroxyethyl)-phenanthrene RT = 6.20 min” value ([2]; substrate 9-Ethylphenanthrene) is reported as 1206 ± 47.9 pmol/min/mg microsomal protein, the “Vmax, formation of 9-(2-Hydroxyethyl)-phenanthrene RT = 6.00 min” value ([2]; substrate 9-Ethylphenanthrene) is reported as 37.0 ± 2.26 pmol/min/mg microsomal protein and the “Vmax, formation of 9-Ethylphenanthrol RT = 7.42 min” value ([2]; substrate 9-Ethylphenanthrene) is reported as 29.7 ± 3.1 pmol/min/mg microsomal protein. The “Vmax, formation of 9-Ethylphenanthrol RT = 7.58 min” value ([2]; substrate 9-Ethylphenanthrene) was 56.6 ± 1.8 pmol/min/mg microsomal protein, the “Vmax, formation of 9-Ethylphenanthrol RT = 7.93 min” value ([2]; substrate 9-Ethylphenanthrene) was 22.8 ± 1.8 pmol/min/mg microsomal protein and the “Vmax, formation of Dihydro-9-ethylphenanthrene-diol RT = 3.81 min” value ([2]; substrate 9-Ethylphenanthrene) was 12.0 ± 2.1 pmol/min/mg microsomal protein. For the same compound, the “Vmax, formation of Unknown metabolite RT = 9.35 min” value ([2]; substrate 9-Ethylphenanthrene) was 52.7 ± 6.2 pmol/min/mg microsomal protein, the “Vmax, formation of 9-(1-Hydroxyethyl)-phenanthrene RT = 6.20 min” value ([3]; substrate 9-Ethylphenanthrene) was 267.7 ± 17.4 pmol/min/mg microsomal protein and the “Vmax, formation of 9-(2-Hydroxyethyl)-phenanthrene RT = 6.00 min” value ([3]; substrate 9-Ethylphenanthrene) was 61.4 ± 3.3 pmol/min/mg microsomal protein. For the same compound, the “Vmax, formation of 9-Ethylphenanthrol RT = 7.42 min” value ([3]; substrate 9-Ethylphenanthrene) was 12.8 ± 1.1 pmol/min/mg microsomal protein, the “Vmax, formation of 9-Ethylphenanthrol RT = 7.58 min” value ([3]; substrate 9-Ethylphenanthrene) was 29.1 ± 2.8 pmol/min/mg microsomal protein and the “Vmax, formation of Dihydro-9-ethylphenanthrene-diol RT = 3.81 min” value ([3]; substrate 9-Ethylphenanthrene) was 15.2 ± 0.8 pmol/min/mg microsomal protein. For the same compound, the “Vmax, formation of Dihydro-9-ethylphenanthrene-diol RT = 3.88 min” value ([3]; substrate 9-Ethylphenanthrene) was 23.5 ± 1.4 pmol/min/mg microsomal protein.
In the case of COS(C)(=O)=O [MMS, methylmethanesulfonate, reference compound], the “His + revertant colonies TA100 without S9-mix” value [4] is reported as 868±70 and 823±58 and 783±46.
For CCCCCCCCCCCCc1cccc2c1ccc1ccccc12 [1-N-dodecylphenanthrene, 1-n-dodecylphenanthrene], the “Metabolic conversion (metabolites formed)” value [2, 7] was “No metabolic conversion was observed” and the “Metabolic conversion (metabolites formed)” value [3, 7] was “No metabolic conversion was observed”.
